Patent publication US20120201762A1, “ORAL CARE COMPOSITION” (COLGATE-PALMOLIVE COMPANY, priority 2009, published 2012)

How the values were obtained:
VSC in whole saliva [1] = assay: Reduction of VSC in whole saliva incubated overnight with cysteine and an amino acid (GC); details: for VSC Reduction (%): relative to saliva and cysteine alone, 10% of 0.1% amino acid solution added to 50% whole saliva, overnight incubation; for Effect on VSC in saliva (in words): whole saliva with cysteine
Experimental: The effect of serine and other amino acids on VSC was tested. Whole saliva was incubated overnight with cysteine and an additional amino acid selected from serine, proline, tyrosine, glycine, aspargine, glutamic acid, and histidine. In this experiment, 10% of 0.1% amino acid solution was added to 50% whole saliva. GC measurements were made for VSC.

VSC in whole saliva [2] = assay: Headspace VSC in whole saliva incubated with zinc lactate with and without serine (GC); details: zinc lactate 0.16%
Experimental: The effect of zinc lactate and serine on VSC was tested. Whole saliva with tryptophan (0.14%), zinc lactate (0.16%), and when necessary, serine (0.42%), was incubated overnight at 37° C. After 24 h, the samples were allowed to cool to 25° C. The samples were then quantified for headspace VSC using a GC.

indole in whole saliva [3] = assay: Indole production in whole saliva incubated with tryptophan, zinc lactate with and without serine (GC); details: for Indole (ppm): serine 0.42% where present, whole saliva with tryptophan 0.14%, overnight at 37° C.
Experimental: The effect of zinc lactate and serine on indole was tested. Whole saliva with tryptophan (0.14%), various concentrations of zinc lactate, and when necessary, serine (0.42%), was incubated overnight at 37° C. After 24 h, the samples were allowed to cool to 25° C. The samples were extracted with hexanes (2 mL) and the organic layer (1 mL) was used for GC quantification.

indole in whole saliva [4] = assay: Reduction of indole in whole saliva incubated with tryptophan and serine (hexanes extraction, GC); details: whole saliva with tryptophan 0.14%; for Area Under the Curve (AUC), indole by GC: overnight at 37° C., control without serine 642403
Experimental: The effect of serine on indole was tested. Whole saliva with tryptophan (0.14%) and various concentrations of serine was incubated overnight at 37° C. After 24 h, the samples were allowed to cool to 25° C. The samples were extracted with hexanes and the organic layer was used for GC quantification.

Structure (SMILES): N[C@@H](Cc1ccc(O)cc1)C(=O)O [Tyrosine, tyrosine]
- VSC Reduction (%) (VSC in whole saliva [1]): 0.06%

Structure (SMILES): CC(O)C(=O)[O-].CC(O)C(=O)[O-].[Zn+2] (stereo not shown) [Zinc Lactate, zinc lactate]
- VSC (ppb) (VSC in whole saliva [2]; headspace VSC, whole saliva with tryptophan 0.14%, serine 0.42% where present, overnight at 37° C.): 109.25 ppb
- Indole (ppm) (indole in whole saliva [3]; zinc lactate 0.09%): 9.99 ppm
- Indole (ppm) (indole in whole saliva [3]; zinc lactate 0.16%): 5.09 ppm
- Indole (ppm) (indole in whole saliva [3]; zinc lactate 0.23%): 4.71 ppm

Structure (SMILES): N[C@@H](CO)C(=O)O [Serine, (2S)-2-amino-3-hydroxypropanoic acid]
- VSC Reduction (%) (VSC in whole saliva [1]): 36.56%
- Effect on VSC in saliva (in words) (VSC in whole saliva [1]): greatest percent reduction of VSC
- Effect on VSC in saliva (in words) (VSC in whole saliva [1]; listed as serine): able to reduce VSC in saliva
- Area Under the Curve (AUC), indole by GC (indole in whole saliva [4]; serine 0.21%): 584720
- Area Under the Curve (AUC), indole by GC (indole in whole saliva [4]; serine 0.42%): 532053
- Area Under the Curve (AUC), indole by GC (indole in whole saliva [4]; serine 0.84%): 542136
- Effect on amount of indole in saliva (in words) (indole in whole saliva [4]): able to reduce amount of indole in saliva
- Effect of serine added to zinc lactate on VSC production (in words) (VSC in whole saliva [2]; serine 0.42%): enhances the effect of zinc lactate and reduces VSC production
- Effect of serine added to zinc lactate on indole production (in words) (indole in whole saliva [3]; various concentrations of zinc lactate, serine 0.42%): enhances the effect of zinc lactate and reduces indole production

Structure (SMILES): N[C@@H](CCC(=O)O)C(=O)O [Glutamic acid, glutamic acid]
- VSC Reduction (%) (VSC in whole saliva [1]): −5.2%

Structure (SMILES): O=C(O)[C@@H]1CCCN1 [Proline, proline]
- VSC Reduction (%) (VSC in whole saliva [1]): 6.99%

Structure (SMILES): NC(=O)C[C@H](N)C(=O)O [Asparagine]
- VSC Reduction (%) (VSC in whole saliva [1]): −2.14%

Structure (SMILES): NCC(=O)O [Glycine, glycine]
- VSC Reduction (%) (VSC in whole saliva [1]): 14%

Structure (SMILES): N[C@@H](Cc1c[nH]cn1)C(=O)O [Histidine, histidine]
- VSC Reduction (%) (VSC in whole saliva [1]): 1.36%
